The structures appear in SMILES notation.

The subject of assay [1] is FFPE human breast cancer, melanoma, lymph node, lung cancer, and normal lung tissues. Nature of the assay: RCP/RNA transcript detection in de-crosslinked FFPE samples from various tissues. As to conditions: across the tissue types; for visualization of transcripts GAPDH/RPLPO or MALAT-I/ACTB (RCPs): 0 mM or 200 mM, 30 minutes, compared to de-crosslinking in a steamer; for RNA/protein visualization: overlaid images of RNA detection and protein detection. As for the experimental part: The de-crosslinked and washed tissue samples can be immediately used for analyte detection. In some instances, circularizable probes (e.g., padlock probes) targeting MALAT-1/ACTB (nuclear/cytoplasmic) or GAPDH/RPLPO (cytoplasmic) RNA transcripts were added in hybridization buffers (e.g., including SSC and formamide) and incubated with the samples to allow hybridization of the circularizable probes to their target nucleic acids. In addition to a target hybridization region, each circularizable probe also contained a common anchor region and a barcode region. Then, the probe hybridization mixture was removed and the samples were washed. For ligation of the circularizable probes hybridized to their target nucleic acids, a ligation reaction mix (e.g., containing a SplintR® ligase buffer, RNase inhibitor and SplintR® ligase) and a rolling circle amplification (RCA) primer were added to the samples and incubated for probe circularization and RCA primer hybridization to the probes. The samples were washed and an RCA reaction mixture (containing Phi29 reaction buffer, dNTPs, Phi29 polymerase) was added and incubated for RCA of the circularized probes.
(§1) The samples were washed (e.g., in PBST) and detectable probes in a hybridization buffer (e.g., containing SSC and formamide) were hybridized to RCA products (RCPs) in the sample. The detectable probes included probes that hybridize to sequences (e.g., barcode sequences or anchor sequences) in the RCPs and comprise overhangs for hybridization of fluorescently labelled detection oligonucleotides. The samples were imaged in fluorescent microscope with 40× objective and the signals associated with the RCPs were quantified using a software. In some instances, the samples were also stained with DAPI and/or labelled antibodies, e.g., fluorescently labelled anti-Vimentin antibody or anti-panCK antibody. In some instances, once the samples were imaged to detect signals associated with the detectable probes or labelled antibodies, the samples were stripped (e.g., using a denaturing agent) and contacted with additional detectable probes or labelled antibodies for the next imaging round.
FFPE human breast cancer, melanoma, lymph node, lung cancer, and normal lung tissues were processed essentially as described in Example 1. Specifically, 2-amino-5-methylbenzoic acid (Compound 1) or (4-aminopyridin-3-yl)phosphonic acid (Compound 8) was used as the de-crosslinking agent and applied to de-paraffinized and re-hydrated samples in a buffer solution, such as a solution of citrate buffer at pH 6 or a solution of TE buffer at pH 9. […] Analytes in the de-crosslinked tissue samples were detected essentially as described in Example 2.

The test system of another assay is FFPE mouse brain tissues. In words: RCP signal detection in de-crosslinked FFPE mouse brain tissues. The conditions noted are these: compared to Compound 1 in citrate buffer (pH 6.8). As for the experimental part: FFPE mouse brain tissues were processed essentially as described in Example 1, and gene expression analysis for RNA transcripts and protein analysis (e.g., anti-GFAP antibody staining) in the dentate gyrus (DG) region were performed essentially as described in Examples 2 and 3. Four de-crosslinking agent and buffer combinations were tested: Compound 1 in citrate buffer (pH 6.8), Compound 15 in citrate buffer (pH 6.8), Compound 18 (trans-4-hydroxy-L-proline) in citrate buffer (pH 6.8), and Compound 1 in PBS (pH 7.4).

Assay [2] concerns FFPE human breast cancer tissues. Nature of the assay: anti-panCK antibody staining in de-crosslinked FFPE human breast cancer samples. As to conditions: various concentrations in citrate or TE buffer; compared to control de-crosslinked in a steamer. As to the method: FFPE human breast cancer tissues were sectioned to […] thickness, transferred to Superfrost© Plus slides, and processed essentially as described in Example 1. Specifically, 2-amino-5-methylbenzoic acid (Compound 1) was used as the de-crosslinking agent and applied to de-paraffinized and re-hydrated samples in a buffer solution, such as a solution of citrate buffer at pH 6 or a solution of Tris-EDTA (TE) buffer at pH 9. The samples were incubated under various de-crosslinking temperatures (e.g., 80° C. or 95° C.) for various time periods (e.g., 15 minutes or 30 minutes). Different concentrations of the de-crosslinking agent in the buffer solutions were tested, including 0 mM, 50 mM, 100 mM, 200 mM, and 400 mM of Compound 1.
The samples were washed (e.g., in PBST) and detectable probes in a hybridization buffer (e.g., containing SSC and formamide) were hybridized to RCA products (RCPs) in the sample. The detectable probes included probes that hybridize to sequences (e.g., barcode sequences or anchor sequences) in the RCPs and comprise overhangs for hybridization of fluorescently labelled detection oligonucleotides. The samples were imaged in fluorescent microscope with 40× objective and the signals associated with the RCPs were quantified using a software. […]

Assay [3] relates to FFPE human breast cancer samples. In words: antibody staining (Pan cytokeratin, Vimentin, Ki67) in FFPE human breast cancer samples de-crosslinked with additives. As to conditions: in the presence of urea and proteinase K. As to the method:
(§2) FFPE human breast cancer samples sectioned to […] thickness were processed essentially as described in […]. Specifically, 2-amino-5-methylbenzoic acid (Compound 1) was used as the de-crosslinking agent and applied to de-paraffinized and re-hydrated samples in a buffer solution with various additives, such as 0.05% SDS, 0.2% SDS, 0.5% SDS, 0.05 M urea, 0.5 M urea, 0.2 μg/ml proteinase K, 0.5 μg/ml proteinase K, 1 μg/ml proteinase K, and combinations thereof. The samples were incubated at 80° C. for 30 minutes, using 150 mM of Compound 1. Analytes in the de-crosslinked tissue samples were detected essentially as described in Example 2 using circularizable probes (e.g., padlock probes) targeting ACTB, GAPDH, MALAT-1, RPLPO, Eef2, Ppib, POLR2A RNA transcripts. Detectable probes were hybridized to sequences (e.g., barcode sequences or anchor sequences) in the RCPs and comprised overhangs for hybridization of fluorescently labelled detection oligonucleotides. The samples were imaged in fluorescent microscope with 40× objective and the signals associated with the RCPs were quantified using a software.
(§3) FIG. 10A-10C show the detected object count per nucleic area (RCP count/μm^2 nuclei area) in cells of the human breast cancer samples treated with Compound 1 for de-crosslinking in the presence or absence of additives SDS, urea, and/or proteinase K as indicated. […]

The test system of assay [4] is FFPE human breast cancer tissues. Nature of the assay: RCP detection (RCP count/μm^2 nuclei area) in catalytically de-crosslinked FFPE human breast cancer samples. As to conditions: for detection of RCPs (detected object counts per nucleic area, RCP count/μm^2 nuclei area): 100 mM, 80° C., 30 minutes, compared to control de-crosslinked in a steamer for 30 minutes using citrate buffer (pH 6). From the text: A formalin-fixed, paraffin-embedded (FFPE) tissue sample was cut into thin tissue sections using a pre-warmed microtome. The sections were placed on slides and dried at a temperature higher than room temperature, followed by overnight drying at room temperature in a desiccator. Images of the sections were taken for record, e.g., in order to monitor tissue morphology and/or detachment during sample processing. In some instances, images of the sections taken after de-crosslinking were compared to those before de-crosslinking.
The slides were baked uncovered in an oven, and then calibrated to room temperature. The sections were de-paraffinized and dehydrated using xylene and absolute ethanol. The sections were then re-hydrated using an ethanol series (e.g., 96% ethanol followed by 70% ethanol), and then re-hydrated in nuclease free water (e.g., DEPC water). The slides were gently dried to allow application of a cassette to seal around the tissue sections, without letting the tissue section to dry completely.
The sections were then de-crosslinked using a catalyst disclosed herein in a buffer solution. In some instances, the a de-crosslinking buffer can function as an antigen retriever buffer. Then the sections were washed three times with RNase-free phosphate-buffered saline (PBS) or PBST (phosphate-buffered saline solution with a low-concentration detergent solution, e.g., 0.05% to 0.1% Tween™ 20) prior to application of labelling agents (e.g., detectable nucleic acid probes for nucleic acids and/or labelled antibodies for proteins) to the tissue samples.
FFPE human breast cancer tissues were sectioned to […] thickness, transferred to Superfrost© Plus slides, and processed essentially as described in Example 1. Specifically, 2-amino-5-methylbenzoic acid (Compound 1) was used as the de-crosslinking agent and applied to de-paraffinized and re-hydrated samples in a buffer solution, such as a solution of citrate buffer at pH 6 or a solution of Tris-EDTA (TE) buffer at pH 9. […]

The test system of assay [5] is FFPE human breast cancer samples. Nature of the assay: tissue morphology by H&E staining after de-crosslinking workflow with additives. The conditions noted are these: post workflow and detection, confirmed by H&E staining. As for the experimental part: as §2, §3
Assay [6] deals with FFPE human breast cancer, melanoma, lymph node, lung cancer, and normal lung tissues. Nature of the assay: anti-Vimentin antibody staining in de-crosslinked FFPE samples from various tissues. As to conditions: across the tissue types, compared to de-crosslinking in a steamer and heating at 95° C. in TE buffer.
Source text: as §1
FFPE human breast cancer, melanoma, lymph node, lung cancer, and normal lung tissues were processed essentially as described in Example 1. […] Analytes in the de-crosslinked tissue samples were detected essentially as described in Example 2.

Assay [7] deals with FFPE human breast cancer samples. In words: RCP detection in FFPE human breast cancer samples de-crosslinked with additives. As to conditions: for detection of RCPs (detected object counts per nucleic area): 150 mM, 80° C., 30 minutes, compared to no additional additives or single additives. As to the method: as §2
FIG. 10A-10C show the detected object count per nucleic area (RCP count/μm^2 nuclei area) in cells of the human breast cancer samples treated with Compound 1 for de-crosslinking in the presence or absence of additives SDS, urea, and/or proteinase K as indicated. […] In addition, it was observed antibody staining (e.g., antibody positive signal intensity for Pan cytokeratin, Vimentin, and Ki67) was compatible with the catalytic de-crosslinking conditions with Compound 1 in the presence of urea and proteinase K. Tissue morphology was also observed to be preserved post workflow and detection as confirmed by H&E staining that was performed.

Assay [8] concerns normal lung tissue samples. Nature of the assay: RCP detection in catalytically de-crosslinked FFPE normal lung tissue samples. Also noted: species or system human. The conditions noted are these: compared to control samples de-crosslinked in a steamer (data not shown). As to the method: FFPE human breast cancer, melanoma, lymph node, lung cancer, and normal lung tissues were processed essentially as described in Example 1. Specifically, 2-amino-5-methylbenzoic acid (Compound 1) or (4-aminopyridin-3-yl)phosphonic acid (Compound 8) was used as the de-crosslinking agent and applied to de-paraffinized and re-hydrated samples in a buffer solution, such as a solution of citrate buffer at pH 6 or a solution of TE buffer at pH 9. The samples were incubated under various de-crosslinking temperatures (e.g., 80° C. or 95° C.) for 30 minutes, using 0 mM or 200 mM of Compound 1 or Compound 8. Analytes in the de-crosslinked tissue samples were detected essentially as described in Example 2.
The RCPs were detected using detectable probes targeting barcode sequences for MALAT-I/ACTB or GAPDH/RPLPO or targeting the common anchor region in the RCPs (representative images in FIG. 8, left panel).

As to `Cc1ccc(N)c(C(=O)O)c1` [Compound 1, 2-amino-5-methylbenzoic acid], the “visualization of transcripts GAPDH/RPLPO or MALAT-I/ACTB (RCPs)” value in assay [1] is “enhanced visualization”. Besides, in [1], the RNA/protein visualization result is on record as “enhanced RNA/protein visualization”. Also, the “signal density (detected object signal intensity above local background (mean))” value (shortened to “signal density”) in the assay on FFPE mouse brain tissues (PBS (pH 7.4)) is listed as “improved signal density”. The “antibody staining (antibody positive signal intensity), anti-panCK” value in [2] was “may be improved”. For the same compound, the “antibody staining (antibody positive signal intensity for Pan cytokeratin, Vimentin, and Ki67)” value in [3] was “compatible”. Further, the “detection of RCPs (detected object counts per nucleic area, RCP count/μm^2 nuclei area)” value in assay [4] (TE buffer (pH 9)) and in [4] (citrate buffer (pH 6)) was “significantly improve the detection of RCPs” throughout. In addition, in [4] (citrate buffer, between about 100 and about 200 mM), the “sensitivity and RCP brightness” value was “boost sensitivity and RCP brightness”. Also, the tissue morphology entry in assay [5] was “preserved”. Besides, the anti-Vimentin antibody staining entry in assay [6] is recorded as “enhanced anti-Vimentin antibody staining”. Further, the “detection of RCPs (detected object counts per nucleic area)” value was “appeared to improve the detection of RCPs” in assay [7] (in the presence of SDS and proteinase K); “appeared to improve the detection of RCPs” in [7] (in the presence of urea and proteinase K). Moreover, the “puncta brightness and/or numbers detected” value is on record as “increases in puncta brightness and/or numbers detected” in [7] (in the presence of both 0.5 M urea and 1 μg/ml proteinase K); “increases in puncta brightness and/or numbers detected” in assay [7] (in the presence of both 0.5 M urea with 0.5 μg/ml Proteinase K). In addition, the “RCP densities (detected object count per nucleic area, RCP count/μm^2 nuclei area)” value in [8] is “Higher RCP densities”.

Turning to `Nc1ccncc1P(=O)(O)O` [Compound 8, (4-aminopyridin-3-yl)phosphonic acid], in assay [1], the “visualization of transcripts GAPDH/RPLPO or MALAT-I/ACTB (RCPs)” value was “enhanced visualization” and the RNA/protein visualization entry is reported as “enhanced RNA/protein visualization”. In assay [6], the anti-Vimentin antibody staining result is “enhanced anti-Vimentin antibody staining”. Moreover, the “RCP densities (detected object count per nucleic area, RCP count/μm^2 nuclei area)” value in assay [8] is “Higher RCP densities”.

Regarding `Nc1ccccc1P(=O)(O)O` [Compound 15, (2-aminophenyl)phosphonic acid], in the assay on FFPE mouse brain tissues (citrate buffer (pH 6.8)), the “signal density” value is recorded as “improved signal density”.

As for `O=C(O)[C@@H]1C[C@@H](O)CN1` [Compound 18, trans-4-hydroxy-L-proline], the “signal density” value in the assay with FFPE mouse brain tissues (citrate buffer (pH 6.8)) is “improved signal density”.

Source of the values: patent publication US20240035071A1, “CATALYTIC DE-CROSSLINKING OF SAMPLES FOR IN SITU ANALYSIS” (10X Genomics, Inc., priority 2022, published 2024).
